Measurements taken from PubChem BioAssay (NCI).
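Cultured in 96-well plates, cells were exposed to test compound for 48 hours across five concentrations. TGI denotes the concentration required for complete inhibition of growth.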

Key:
Assay in all cases: NCI anticancer screen, dose series, 48 h
OVCAR-5 ovarian = test system: OVCAR-5 ovarian
CAKI-1 renal = test system: CAKI-1 renal
SNB-19 CNS = test system: SNB-19 CNS
LOX IMVI melanoma = test system: LOX IMVI melanoma
NCI-H226 lung = test system: NCI-H226 lung
HOP-92 NSCLC = test system: HOP-92 NSCLC
SNB-78 CNS = test system: SNB-78 CNS
HCC-2998 colon = test system: HCC-2998 colon
MOLT-4 leukemia = test system: MOLT-4 leukemia
SK-MEL-2 melanoma = test system: SK-MEL-2 melanoma
SF-295 CNS = test system: SF-295 CNS
OVCAR-4 ovarian = test system: OVCAR-4 ovarian
A549 NSCLC = test system: A549 NSCLC
TK-10 renal = test system: TK-10 renal
M19-MEL melanoma = test system: M19-MEL melanoma
SR leukemia = test system: SR leukemia
U251 CNS = test system: U251 CNS
SF-268 CNS = test system: SF-268 CNS
ACHN renal = test system: ACHN renal
RPMI-8226 leukemia = test system: RPMI-8226 leukemia
MALME-3M melanoma = test system: MALME-3M melanoma
NCI-H460 lung = test system: NCI-H460 lung
COLO 205 colon = test system: COLO 205 colon
LXFL 529 NSCLC = test system: LXFL 529 NSCLC
SF-539 CNS = test system: SF-539 CNS
A498 renal = test system: A498 renal
OVCAR-3 ovarian = test system: OVCAR-3 ovarian
XF 498 CNS = test system: XF 498 CNS
SNB-75 CNS = test system: SNB-75 CNS
UACC-62 melanoma = test system: UACC-62 melanoma
HT29 colon = test system: HT29 colon
OVCAR-8 ovarian = test system: OVCAR-8 ovarian
M14 melanoma = test system: M14 melanoma
SW-620 colon = test system: SW-620 colon
SK-MEL-5 melanoma = test system: SK-MEL-5 melanoma
HCT-15 colon = test system: HCT-15 colon
DMS 114 small cell lung = test system: DMS 114 small cell lung
KM12 colon = test system: KM12 colon
SN12C renal = test system: SN12C renal
SK-MEL-28 melanoma = test system: SK-MEL-28 melanoma
EKVX NSCLC = test system: EKVX NSCLC
RXF 393 renal = test system: RXF 393 renal
UACC-257 melanoma = test system: UACC-257 melanoma
UO-31 renal = test system: UO-31 renal
NCI-H23 lung = test system: NCI-H23 lung
SK-OV-3 ovarian = test system: SK-OV-3 ovarian
IGROV1 ovarian = test system: IGROV1 ovarian
DLD-1 colon = test system: DLD-1 colon
DMS 273 small cell lung = test system: DMS 273 small cell lung
HOP-18 NSCLC = test system: HOP-18 NSCLC
HOP-62 NSCLC = test system: HOP-62 NSCLC
NCI-H522 lung = test system: NCI-H522 lung
786-0 renal = test system: 786-0 renal
HCT-116 colon = test system: HCT-116 colon
KM20L2 colon = test system: KM20L2 colon

For `CSC1N=CNc2c1sc(=S)n2-c1ccccc1` (stereo not given), which TGI (OVCAR-5 ovarian) is on record?
The TGI was > 100 µM.

What about the TGI (CAKI-1 renal) of the same compound?
Its TGI is > 100 µM.

And the TGI (SNB-19 CNS)?
The TGI was > 100 µM.

What about the TGI (LOX IMVI melanoma) of the same compound?
The TGI was > 100 µM.

And the TGI (NCI-H226 lung)?
Its TGI is > 100 µM.

What about the TGI (HOP-92 NSCLC) of the same compound?
Its TGI is > 100 µM.

And the TGI (SNB-78 CNS)?
The TGI was > 100 µM.

What about the TGI (HCC-2998 colon) of the same compound?
Its TGI is > 100 µM.

What about the TGI (MOLT-4 leukemia) of the same compound?
The TGI was > 100 µM.

What about the TGI (SK-MEL-2 melanoma) of the same compound?
The TGI was > 100 µM.

And the TGI (SF-295 CNS)?
Its TGI is > 100 µM.

And the TGI (OVCAR-4 ovarian)?
Its TGI is > 100 µM.

What about the TGI (A549 NSCLC) of the same compound?
Its TGI is > 100 µM.

What about the TGI (TK-10 renal) of the same compound?
Its TGI is > 100 µM.

And the TGI (M19-MEL melanoma)?
The TGI was > 100 µM.

And the TGI (SR leukemia)?
The TGI was > 100 µM.

What about the TGI (U251 CNS) of the same compound?
The TGI was > 100 µM.

What about the TGI (SF-268 CNS) of the same compound?
Its TGI is > 100 µM.

And the TGI (ACHN renal)?
Its TGI is > 100 µM.

What about the TGI (RPMI-8226 leukemia) of the same compound?
The TGI was > 100 µM.

What about the TGI (MALME-3M melanoma) of the same compound?
Its TGI is > 100 µM.

And the TGI (NCI-H460 lung)?
Its TGI is > 100 µM.

And the TGI (COLO 205 colon)?
The TGI was > 100 µM.

What about the TGI (LXFL 529 NSCLC) of the same compound?
The TGI was > 100 µM.

And the TGI (SF-539 CNS)?
Its TGI is > 100 µM.

What about the TGI (A498 renal) of the same compound?
Its TGI is > 100 µM.

What about the TGI (OVCAR-3 ovarian) of the same compound?
The TGI was > 100 µM.

And the TGI (XF 498 CNS)?
Its TGI is > 100 µM.

And the TGI (SNB-75 CNS)?
The TGI was 84.7 µM.

And the TGI (UACC-62 melanoma)?
Its TGI is > 100 µM.

What about the TGI (HT29 colon) of the same compound?
The TGI was > 100 µM.

What about the TGI (OVCAR-8 ovarian) of the same compound?
The TGI was > 100 µM.

What about the TGI (M14 melanoma) of the same compound?
The TGI was > 100 µM.

And the TGI (SW-620 colon)?
Its TGI is > 100 µM.

And the TGI (SK-MEL-5 melanoma)?
Its TGI is > 100 µM.

What about the TGI (HCT-15 colon) of the same compound?
The TGI was > 100 µM.

And the TGI (DMS 114 small cell lung)?
Its TGI is > 100 µM.

And the TGI (KM12 colon)?
The TGI was > 100 µM.

What about the TGI (SN12C renal) of the same compound?
The TGI was > 100 µM.

What about the TGI (SK-MEL-28 melanoma) of the same compound?
Its TGI is > 100 µM.

And the TGI (EKVX NSCLC)?
The TGI was > 100 µM.

What about the TGI (RXF 393 renal) of the same compound?
The TGI was > 100 µM.

What about the TGI (UACC-257 melanoma) of the same compound?
The TGI was > 100 µM.

And the TGI (UO-31 renal)?
The TGI was > 100 µM.

And the TGI (NCI-H23 lung)?
The TGI was > 100 µM.

What about the TGI (SK-OV-3 ovarian) of the same compound?
The TGI was > 100 µM.

What about the TGI (IGROV1 ovarian) of the same compound?
Its TGI is > 100 µM.

And the TGI (DLD-1 colon)?
Its TGI is > 100 µM.

What about the TGI (DMS 273 small cell lung) of the same compound?
The TGI was > 100 µM.

And the TGI (HOP-18 NSCLC)?
The TGI was > 100 µM.

And the TGI (HOP-62 NSCLC)?
The TGI was 74.4 µM.

And the TGI (NCI-H522 lung)?
Its TGI is > 100 µM.

And the TGI (786-0 renal)?
Its TGI is > 100 µM.

What about the TGI (HCT-116 colon) of the same compound?
Its TGI is > 100 µM.

And the TGI (KM20L2 colon)?
The TGI was > 100 µM.
